# Assay results taken from patent EP4722219A1 (Gan & Lee Pharmaceuticals Co., Ltd., priority 2023, dated 2024).
# How the values were obtained:
# Type in all cases: cell-based
# T-47D cells = experiment: Inhibition of cell proliferation in T-47D cells (CCK-8); settings: Homo sapiens, T47D, 144 h, 6 days treatment, CCK-8 cell viability
# Summary of the method: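 T-47D cells (3,000/well) in RPMI-1640 with 10% FBS were exposed to a concentration range of PROTAC compounds for 6 days at 37 °C, 5% CO2. Viability read by CCK-8; IC50 fitted from inhibition rate.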
# ERα [1] = molecular target: T1, ERα (Homo sapiens, UniProt P03372); experiment: ERα degradation in MCF-7 cells (Western blot); design: host or cells: MCF-7; settings: 4 hours
# T1 sequence (P03372 1-595): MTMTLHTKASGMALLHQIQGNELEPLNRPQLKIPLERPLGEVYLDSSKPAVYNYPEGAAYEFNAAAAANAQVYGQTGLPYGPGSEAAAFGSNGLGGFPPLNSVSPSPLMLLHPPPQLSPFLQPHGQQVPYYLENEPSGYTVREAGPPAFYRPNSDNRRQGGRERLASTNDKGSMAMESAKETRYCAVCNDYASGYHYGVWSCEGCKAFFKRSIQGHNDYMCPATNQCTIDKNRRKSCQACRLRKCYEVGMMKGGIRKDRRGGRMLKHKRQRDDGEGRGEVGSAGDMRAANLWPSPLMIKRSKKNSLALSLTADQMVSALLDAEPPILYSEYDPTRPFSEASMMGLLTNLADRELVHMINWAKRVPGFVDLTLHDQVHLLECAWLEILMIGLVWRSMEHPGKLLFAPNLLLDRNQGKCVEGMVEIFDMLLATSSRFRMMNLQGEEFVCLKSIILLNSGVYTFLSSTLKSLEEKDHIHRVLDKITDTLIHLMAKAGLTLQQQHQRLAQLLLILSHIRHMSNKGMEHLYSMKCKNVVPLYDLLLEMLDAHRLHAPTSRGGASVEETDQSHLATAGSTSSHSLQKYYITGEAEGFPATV
# Summary of the method: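 MCF-7 cells treated 4 h at 37 °C with compound at 0.15–1000 nM final. ERα in lysates measured by Western blot (20 µg protein), normalized to an internal reference protein; degradation rate calculated against control.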
# ERα [2] = molecular target: T1, ERα; experiment: ERα degradation in T-47D cells (Western blot); settings: 4 hours
# Summary of the method: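 T-47D cells at 3×10^5 cells/well were exposed to compound (final 0.15-1000 nM, DMSO) for 4 hours at 37°C and then lysed in RIPA. ERα was measured by Western blot (20 µg protein) with infrared imaging. The degradation rate was calculated from ERα/internal-reference grayscale ratios relative to control.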
# MCF-7 cells = experiment: Inhibition of cell proliferation in MCF-7 cells (CCK-8); settings: Homo sapiens, MCF7, 144 h, MCF-7 cell proliferation, 6 days treatment
# Summary of the method: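 MCF-7 cells, 800 per well in DMEM plus 10% FBS, exposed to graded PROTAC concentrations for 6 days at 37 °C, 5% CO2. Viability by CCK-8; IC50 fitted from inhibition rates.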
smiles,measurement,setting,value
"O=C1CCC(N2Cc3c(ccc4c3OCC43CCC4(CC3)CN(CC3CCN(c5ccc([C@@H]6c7ccc(O)cc7CC[C@@H]6c6ccccc6)cc5)CC3)C4)C2=O)C(=O)N1 (stereo partly drawn) [ER-P-23, 3-(1-((1-(4-((1R,2S)-6-hydroxy-2-phenyl-1,2,3,4-tetrahydronaphthalen-1-yl)phenyl)piperidin-4-yl)methyl)-6""-oxo-6"",8""-dihydro-2""H,7""H-di(pyridyl)furan[azetidine-3,1'-cyclohexane-4',3""-furo[2,3-e]isoindol]-7""-yl)piperidine-2,6-dione]",IC50,T-47D cells,1.61 nM
same,Degradation rate of ERα in MCF-7 cells (%),ERα [1]; 1nM,26%
same,Degradation rate of ERα in MCF-7 cells (%),ERα [1]; 10nM,48%
same,Degradation rate of ERα in T-47D cells (%),ERα [2]; 1nM,40%
same,Degradation rate of ERα in T-47D cells (%),ERα [2]; 10nM,67%
same,IC50,MCF-7 cells,< 0.256 nM
"O=C1CC[C@H](NC(=O)c2ccc3c(c2F)OCC32CCN(C3CCC4(CC3)CCN(c3ccc([C@@H]5c6ccc(O)cc6CC[C@@H]5c5ccccc5)cc3)CC4)CC2)C(=O)N1 [ER-P-39, N-((S)-2,6-dioxopiperidin-3-yl)-7-fluoro-1'-(3-(4-((1R,2S)-6-hydroxy-2-phenyl-1,2,3,4-tetrahydronaphthalen-1-yl)phenyl)-3-azaspiro[5.5]undecan-9-yl)-2H-spiro[benzofuran-3,4'-piperidine]-6-carboxamide]",IC50,T-47D cells,14.2 nM
same,Degradation rate of ERα in MCF-7 cells (%),ERα [1]; 1nM,-13%
same,Degradation rate of ERα in MCF-7 cells (%),ERα [1]; 10nM,-16%
same,Degradation rate of ERα in T-47D cells (%),ERα [2]; 1nM,-7%
same,Degradation rate of ERα in T-47D cells (%),ERα [2]; 10nM,-3%
same,IC50,MCF-7 cells,526 nM
